Measured values: ChEMBL document CHEMBL3045481, “Insecticide-induced resurgence of the whitebacked planthopper Sogatella furcifera (Horvath) (Hemiptera: Delphacidae) on rice varieties with different levels of resistance” (Crop Prot, 2011)

Key:
Type in all cases: ADME, organism-based
Details in all cases: in vivo
Oryza sativa [1] = assay: Effect on total sugar level in Sogatella furcifera-resistanct Oryza sativa (rice) plant PR116 leaf sheath measured per gram of dry weight at 0.0018% concentration (reference value: 30.27 mg/g dry wt)
Oryza sativa [2] = assay: Effect on total sugar level in Sogatella furcifera-resistanct Oryza sativa (rice) plant PR116 leaf sheath measured per gram of dry weight at 0.0035% concentration (reference value: 30.27 mg/g dry wt)
Oryza sativa [3] = assay: Effect on total phenols level in Sogatella furcifera-resistanct Oryza sativa (rice) plant PR116 leaf sheath measured per gram of dry weight at 0.0018% concentration (reference value: 5.75 mg/g dry wt)
Oryza sativa [4] = assay: Effect on total phenols level in Sogatella furcifera-resistanct Oryza sativa (rice) plant PR116 leaf sheath measured per gram of dry weight at 0.0035% concentration (reference value: 5.75 mg/g dry wt)
Oryza sativa [5] = assay: Effect on total amino acids level in Sogatella furcifera-resistanct Oryza sativa (rice) plant PR116 leaf blade measured per gram of dry weight at 0.0018% concentration (reference value: 3.91 mg/g […])
Oryza sativa [6] = assay: Effect on total amino acids level in Sogatella furcifera-resistanct Oryza sativa (rice) plant PR116 leaf blade measured per gram of dry weight at 0.0035% concentration (reference value: 3.91 mg/g […])
Oryza sativa [7] = assay: Effect on total amino acids level in Sogatella furcifera-sensitive Oryza sativa (rice) plant ARC6248 leaf sheath measured per gram of dry weight at 0.0018% concentration (reference value: 2.11 mg/g fresh wt)
Oryza sativa [8] = assay: Effect on total amino acids level in Sogatella furcifera-sensitive Oryza sativa (rice) plant ARC6248 leaf sheath measured per gram of dry weight at 0.0035% concentration (reference value: 2.11 mg/g fresh wt)
Oryza sativa [9] = assay: Effect on total amino acids level in Sogatella furcifera-sensitive Oryza sativa (rice) plant ARC6248 leaf blade measured per gram of dry weight at 0.0018% concentration (reference value: 3.54 mg/g fresh wt)
Oryza sativa [10] = assay: Effect on total amino acids level in Sogatella furcifera-sensitive Oryza sativa (rice) plant ARC6248 leaf blade measured per gram of dry weight at 0.0035% concentration (reference value: 3.54 mg/g fresh wt)
Oryza sativa [11] = assay: Effect on total protein level in Sogatella furcifera-sensitive Oryza sativa (rice) plant ARC6248 leaf blade measured per gram of dry weight at 0.0018% concentration (reference value: 17.67 mg/g fresh wt)
Oryza sativa [12] = assay: Effect on total protein level in Sogatella furcifera-sensitive Oryza sativa (rice) plant ARC6248 leaf blade measured per gram of dry weight at 0.0035% concentration (reference value: 17.67 mg/g fresh wt)
Oryza sativa [13] = assay: Effect on total protein level in Sogatella furcifera-resistanct Oryza sativa (rice) plant PR116 leaf blade measured per gram of dry weight at 0.0018% concentration (reference value: 21.67 mg/g fresh wt)
Oryza sativa [14] = assay: Effect on total protein level in Sogatella furcifera-resistanct Oryza sativa (rice) plant PR116 leaf blade measured per gram of dry weight at 0.0035% concentration (reference value: 21.67 mg/g fresh wt)
Oryza sativa [15] = assay: Effect on reducing sugar level in Sogatella furcifera-sensitive Oryza sativa (rice) plant ARC6248 leaf blade measured per gram of dry weight at 0.0018% concentration (reference value: 8.37 mg/g dry wt)
Oryza sativa [16] = assay: Effect on reducing sugar level in Sogatella furcifera-sensitive Oryza sativa (rice) plant ARC6248 leaf blade measured per gram of dry weight at 0.0035% concentration (reference value: 8.37 mg/g dry wt)
Oryza sativa [17] = assay: Effect on total amino acids level in Sogatella furcifera-resistanct Oryza sativa (rice) plant PR116 leaf sheath measured per gram of dry weight at 0.0018% concentration (reference value: 2.58 mg/g […])
Oryza sativa [18] = assay: Effect on total amino acids level in Sogatella furcifera-resistanct Oryza sativa (rice) plant PR116 leaf sheath measured per gram of dry weight at 0.0035% concentration (reference value: 2.58 mg/g […])
Oryza sativa [19] = assay: Effect on total phenols level in Sogatella furcifera-sensitive Oryza sativa (rice) plant ARC6248 leaf blade measured per gram of dry weight at 0.0018% concentration (reference value: 17.08 mg/g dry wt)
Oryza sativa [20] = assay: Effect on total phenols level in Sogatella furcifera-sensitive Oryza sativa (rice) plant ARC6248 leaf blade measured per gram of dry weight at 0.0035% concentration (reference value: 17.08 mg/g dry wt)
Oryza sativa [21] = assay: Effect on total phenols level in Sogatella furcifera-resistanct Oryza sativa (rice) plant PR116 leaf blade measured per gram of dry weight at 0.0018% concentration (reference value: 8.08 mg/g dry wt)
Oryza sativa [22] = assay: Effect on total phenols level in Sogatella furcifera-resistanct Oryza sativa (rice) plant PR116 leaf blade measured per gram of dry weight at 0.0035% concentration (reference value: 8.08 mg/g dry wt)
Oryza sativa [23] = assay: Effect on reducing sugar level in Sogatella furcifera-resistanct Oryza sativa (rice) plant PR116 leaf blade measured per gram of dry weight at 0.0018% concentration (reference value: 9.35 mg/g dry wt)
Oryza sativa [24] = assay: Effect on reducing sugar level in Sogatella furcifera-resistanct Oryza sativa (rice) plant PR116 leaf blade measured per gram of dry weight at 0.0035% concentration (reference value: 9.35 mg/g dry wt)
Oryza sativa [25] = assay: Effect on total sugar level in Sogatella furcifera-sensitive Oryza sativa (rice) plant ARC6248 leaf blade measured per gram of dry weight at 0.0018% concentration (reference value: 34.05 mg/g dry wt)
Oryza sativa [26] = assay: Effect on total sugar level in Sogatella furcifera-sensitive Oryza sativa (rice) plant ARC6248 leaf blade measured per gram of dry weight at 0.0035% concentration (reference value: 34.05 mg/g dry wt)
Oryza sativa [27] = assay: Effect on total sugar level in Sogatella furcifera-resistanct Oryza sativa (rice) plant PR116 leaf blade measured per gram of dry weight at 0.0018% concentration (reference value: 36.16 mg/g dry wt)
Oryza sativa [28] = assay: Effect on total sugar level in Sogatella furcifera-resistanct Oryza sativa (rice) plant PR116 leaf blade measured per gram of dry weight at 0.0035% concentration (reference value: 36.16 mg/g dry wt)
Oryza sativa [29] = assay: Effect on total protein level in Sogatella furcifera-sensitive Oryza sativa (rice) plant ARC6248 leaf sheath measured per gram of dry weight at 0.0018% concentration (reference value: 6.11 mg/g […])
Oryza sativa [30] = assay: Effect on total protein level in Sogatella furcifera-sensitive Oryza sativa (rice) plant ARC6248 leaf sheath measured per gram of dry weight at 0.0035% concentration (reference value: 6.11 mg/g […])
Oryza sativa [31] = assay: Effect on total protein level in Sogatella furcifera-resistanct Oryza sativa (rice) plant PR116 leaf sheath measured per gram of dry weight at 0.0018% concentration (reference value: 7.06 mg/g fresh wt)
Oryza sativa [32] = assay: Effect on total protein level in Sogatella furcifera-resistanct Oryza sativa (rice) plant PR116 leaf sheath measured per gram of dry weight at 0.0035% concentration (reference value: 7.06 mg/g fresh wt)
Oryza sativa [33] = assay: Effect on total phenols level in Sogatella furcifera-sensitive Oryza sativa (rice) plant ARC6248 leaf sheath measured per gram of dry weight at 0.0018% concentration (reference value: 12.75 mg/g dry wt)
Oryza sativa [34] = assay: Effect on total phenols level in Sogatella furcifera-sensitive Oryza sativa (rice) plant ARC6248 leaf sheath measured per gram of dry weight at 0.0035% concentration (reference value: 12.75 mg/g dry wt)
Oryza sativa [35] = assay: Effect on reducing sugar level in Sogatella furcifera-sensitive Oryza sativa (rice) plant ARC6248 leaf sheath measured per gram of dry weight at 0.0018% concentration (reference value: 6.41 mg/g dry wt)
Oryza sativa [36] = assay: Effect on reducing sugar level in Sogatella furcifera-sensitive Oryza sativa (rice) plant ARC6248 leaf sheath measured per gram of dry weight at 0.0035% concentration (reference value: 6.41 mg/g dry wt)
Oryza sativa [37] = assay: Effect on reducing sugar level in Sogatella furcifera-resistanct Oryza sativa (rice) plant PR116 leaf sheath measured per gram of dry weight at 0.0018% concentration (reference value: 7.50 mg/g dry wt)
Oryza sativa [38] = assay: Effect on reducing sugar level in Sogatella furcifera-resistanct Oryza sativa (rice) plant PR116 leaf sheath measured per gram of dry weight at 0.0035% concentration (reference value: 7.50 mg/g dry wt)
Oryza sativa [39] = assay: Effect on total sugar level in Sogatella furcifera-sensitive Oryza sativa (rice) plant ARC6248 leaf sheath measured per gram of dry weight at 0.0018% concentration (reference value: 25.98 mg/g dry wt)
Oryza sativa [40] = assay: Effect on total sugar level in Sogatella furcifera-sensitive Oryza sativa (rice) plant ARC6248 leaf sheath measured per gram of dry weight at 0.0035% concentration (reference value: 25.98 mg/g dry wt)

O=[N+]([O-])NC1=NCCN1Cc1ccc(Cl)nc1 [IMIDACLOPRID]
Activity (Oryza sativa [1]): 31.34 mg
Activity (Oryza sativa [2]): 32.41 mg
Activity (Oryza sativa [3]): 6.17 mg
Activity (Oryza sativa [4]): 6.67 mg
Activity (Oryza sativa [5]): 3.73 mg
Activity (Oryza sativa [6]): 4.27 mg
Activity (Oryza sativa [7]): 2.02 mg
Activity (Oryza sativa [8]): 2.48 mg
Activity (Oryza sativa [9]): 3.21 mg
Activity (Oryza sativa [10]): 3.73 mg
Activity (Oryza sativa [11]): 15.11 mg
Activity (Oryza sativa [12]): 17.78 mg
Activity (Oryza sativa [13]): 18.89 mg
Activity (Oryza sativa [14]): 21.11 mg
Activity (Oryza sativa [15]): 9.67 mg
Activity (Oryza sativa [16]): 8.8 mg
Activity (Oryza sativa [17]): 2.4 mg
Activity (Oryza sativa [18]): 2.68 mg
Activity (Oryza sativa [19]): 17.67 mg
Activity (Oryza sativa [20]): 18 mg
Activity (Oryza sativa [21]): 8.08 mg
Activity (Oryza sativa [22]): 8 mg
Activity (Oryza sativa [23]): 12.72 mg
Activity (Oryza sativa [24]): 11.85 mg
Activity (Oryza sativa [25]): 40.45 mg
Activity (Oryza sativa [26]): 37 mg
Activity (Oryza sativa [27]): 40.98 mg
Activity (Oryza sativa [28]): 39.91 mg
Activity (Oryza sativa [29]): 5.56 mg
Activity (Oryza sativa [30]): 5.56 mg
Activity (Oryza sativa [31]): 6.06 mg
Activity (Oryza sativa [32]): 6.67 mg
Activity (Oryza sativa [33]): 14.75 mg
Activity (Oryza sativa [34]): 14.08 mg
Activity (Oryza sativa [35]): 7.28 mg
Activity (Oryza sativa [36]): 6.63 mg
Activity (Oryza sativa [37]): 8.8 mg
Activity (Oryza sativa [38]): 8.81 mg
Activity (Oryza sativa [39]): 34.55 mg
Activity (Oryza sativa [40]): 30.27 mg
